Test results: patent US20240366571A1, “MODULATORS OF SK4 POTASSIUM CHANNEL AND USES THEREOF” (Ramot at Tel-Aviv University Ltd., priority 2022, published 2024)
“Also recorded” adds a separate entry of the source.

Experiments:
human SK1 = target: T1, human SK1 (Homo sapiens, UniProt Q92952); assay: Whole-cell patch-clamp of SK1 currents in CHO cells; assay type: cell-based; conditions: 20 μM
T1 construct: expressed in transfected cells; host or cells: CHO cells
Description: (§1) Constructs: For CHO cell transfection, the following were cloned: human SK1, rat SK2, human SK3, and rat calmodulin into the pcDNA3 vector, human SK4 into pEGFP-C1 vector, and PIP4,5-kinase into an IRES-dsRed plasmid. The mutations were introduced using the PCR-based QuikChange™ site-directed mutagenesis (Stratagene®) and were verified by full sequencing of the entire plasmid vector.
Cell Culture and Transfection: Chinese hamster ovary (CHO) cells were grown in Dulbecco's modified Eagle's medium supplemented with 2 millimolar (mM) glutamine, 10% fetal calf serum, and antibiotics. In brief, 40,000 cells seeded on poly-L-lysine-coated glass coverslips (13 millimeter (mm) in diameter) in a 24-multiwell plate were transfected with 0.5 microgram (μg) pEGFP-SK4/0.5 μg mutant SK4, 1.2 μg dsRed-PIP4,5-kinase or with 1 μg SK1/SK2/SK3 together with pIRES-CD8 (0.3 μg) as a marker for transfection. Transfection was performed using TransIT-LT1 Transfection Reagent (Mirus Bio) according to the manufacturer's protocol. For electrophysiology, transfected cells were visualized approximately 40 hours after transfection with a Zeiss Axiovert 35 inverted florescence microscope.
Whole-cell patch-clamp recording: Voltage-clamp recordings were performed using the whole-cell configuration of the patch-clamp technique. Signals were amplified using an […] patch-clamp amplifier (Molecular Devices), sampled at 5 kHz and filtered at 2.4 kHz via a four pole Bessel low pass filter. Data were acquired using pClamp™ 10.5 software in conjunction with an Axon™ DigiData® 1440A interface (Molecular Devices). The patch pipettes were pulled from borosilicate glass (Harvard Apparatus) with a resistance of 3-5 megaohms (MΩ). The intracellular pipette solution contained 130 mM KCl, 5 mM EGTA, 10 mM HEPES, pH 7.3 (adjusted with KOH), and CaCl2 calculated for a final concentration of 1 μM free-Ca^2+, by MAXCHELATOR (WEBMAXC STANDARD) software, with sucrose added to adjust osmolarity to 290 mosM. […]

SK4 channel mutants [1] = target: T2, SK4 channel mutants (Homo sapiens, UniProt O15554, R352Q); assay: Whole-cell patch-clamp of SK4 channel mutants; assay type: cell-based; conditions: read-out: inhibition of SK4 mutant R352Q current
T2 construct: expressed in transfected cells; host or cells: CHO cells
Description: as §1
(§2) Whole-cell patch-clamp recording: Voltage-clamp recordings were performed using the whole-cell configuration of the patch-clamp technique. Signals were amplified using an […] patch-clamp amplifier (Molecular Devices), sampled at 5 kHz and filtered at 2.4 kHz via a four pole Bessel low pass filter. Data were acquired using pClamp™ 10.5 software in conjunction with an Axon™ DigiData® 1440A interface (Molecular Devices). The patch pipettes were pulled from borosilicate glass (Harvard Apparatus) with a resistance of 3-5 megaohms (MΩ). The intracellular pipette solution contained 130 mM KCl, 5 mM EGTA, 10 mM HEPES, pH 7.3 (adjusted with KOH), and CaCl2 calculated for a final concentration of 1 μM free-Ca^2+, by MAXCHELATOR (WEBMAXC STANDARD) software, with sucrose added to adjust osmolarity to 290 mosM. The external solution (310 mosM) contained 140 mM NaCl, 4 mM KCl, 1.8 mM CaCl2, 1.2 mM MgCl2, 11 mM glucose, and 5.5 mM HEPES adjusted with NaOH to pH 7.3. CHO cells were held at −90 millivolt (mV) and SK4 K^+ currents were activated using a voltage ramp protocol from −100 mV to +60 mV for 150 milliseconds. Electrophysiological data analysis was performed using the Clampfit program (pClamp™ 10.5; Molecular Devices).
(§3) To examine ex-vivo the interactions between BA6b9 and the simulated residues seen in FIG. 5B, residues that are in atomic proximity and are expected to interact with BA6b9 were mutated. Such mutated residues were, for example, R191 and H192 of linker S4-S5, M72 and M76 of the CaM linker as well as L19, E22, Y179, S181, A184, Q187 and R189, which are more distant from BA6b9.

SK4 channel mutants [2] = target: T3, SK4 channel mutants (Homo sapiens, UniProt O15554, E22A); assay: Whole-cell patch-clamp of SK4 channel mutants; assay type: cell-based; conditions: read-out: inhibition of SK4 mutant E22A current
T3 construct: expressed in transfected cells; host or cells: CHO cells
Description: as §1, §2, §3

SK4 channel mutants [3] = assay: Whole-cell patch-clamp of SK4 channel mutants; assay type: cell-based, human; conditions: 20 μM
Description: as §1, §2, §3

isolated rat hearts = assay: Atrial fibrillation induction by burst pacing with carbachol in isolated rat hearts
Description: Atrial Fibrillation induction in Sprague-Dawley rats: For evaluation of Tram-34 and BA6b9 on atrial fibrillation (AF) induction, a custom-made quadripolar electrode was inserted for simultaneous recording and pacing on the HRA. To increase susceptibility for reentry and atrial tachyarrhythmia, the cholinergic agonist carbachol was used. First, baseline AERP was measured under normal physiological conditions, and the measurement was repeated upon exposure to 0.3 μM carbachol, 0.3 μM carbachol+10 μM Tram-34 or 0.3 μM carbachol+10 μM BA6b9. Then, for AF induction, burst pacing was applied to the HRA under increasing pacing thresholds (2×, 3×, 4×, 5×, and 6× threshold). This protocol included two consecutive 5 second bursts at a cycle length of 20 milliseconds for each threshold. This protocol was tested under […] conditions: normal physiological conditions, 0.3 μM carbachol, 0.3 μM carbachol+10 μM Tram-34, or 0.3 μM carbachol+10 μM BA6b9. To determine AF susceptibility under each condition, an AFIS (AF induction score) ranking system was created, relying on the level of threshold intensity when AF induction was successful. Lower AF induction threshold means higher AFIS. The ranking was as follows: induction at 2×-diastolic threshold received the highest score of 5, at 3× the received score was 4, at 4× the received score was 3, at 5× the received score was 2, at 6× the received score was 1, and if no induction occurred it scored zero. For AF sustainability quantification, sustained AF was determined as lasting ≥5 minutes. Non-sustained AF received a score of zero and sustained AF received a score of 1.

CCCCCCCn1c(=O)oc2ccccc21 [BA6b9, 3-heptylbenzo[d]oxazol-2(3H)-one]
SK1 activity in comparison with control (human SK1): 118%
SK1 drug-to-control current ratio (human SK1): 1.18
effect on SK1 currents (representative trace) (human SK1): nearly nullified effect; also recorded: did not lead to modulation
inhibition at 20 µM (SK4 channel mutants [1]): 31%
inhibition at 20 µM (SK4 channel mutants [2]): 56%
sensitivity of mutants R352Q, R191A, H192A to inhibition compared to WT SK4 (SK4 channel mutants [3]): significantly less sensitive
reduction of AFIS (isolated rat hearts; 10 μM + 0.3 μM carbachol vs carbachol alone): 48%
AFIS (AF induction score) (isolated rat hearts; 10 μM + 0.3 μM carbachol, 3.1 with carbachol alone): 1.6
sustained AF induction (isolated rat hearts; 10 μM + 0.3 μM carbachol, 100% with carbachol alone): 70%
heart preparations in which AF sustainability was prevented (isolated rat hearts; 10 μM, burst pacing): 30%
